# From patent US6046171A, “6,11-bridged erythromycin derivatives” (priority 1998, dated 2000)
# Legend:
# Format in all cases: cell-based
# [1] = tested on: Staphylococcus aureus ATCC 6538P; experiment: in vitro antibacterial MIC, agar dilution (BHI agar, Steers replicator); details: organism code AA; 35-37° C., 20 to 24 hours; unit assumed
# Protocol: (§1) Representative compounds of the present invention were assayed in vitro for antibacterial activity as follows: Twelve petri dishes containing successive aqueous dilutions of the test compound mixed with 10 mL of sterilized Brain Heart Infusion (BHI) agar (Difco 0418-01-5) were prepared. Each plate was inoculated with 1:100 (or 1:10 for slow-growing strains, such as Micrococcus and Streptococcus) dilutions of up to 32 different microorganisms, using a Steers replicator block. […] In addition, a control plate, using BHI agar containing no test compound, was prepared and incubated at the beginning and end of each test.
# (§2) An additional plate containing a compound having known susceptibility patterns for the organisms being tested and belonging to the same antibiotic class as the test compound was also prepared and incubated as a further control, as well as to provide test-to-test comparability.
# (§3) After incubation, each plate was visually inspected. The minimum inhibitory concentration (MIC) was defined as the lowest concentration of drug yielding no growth, a slight haze, or sparsely isolated colonies on the inoculum spot as compared to the growth control.
# [2] = tested on: Enterococcus faecium ATCC 8Q43; experiment: in vitro antibacterial MIC, agar dilution; details: organism code II; 35-37° C., 20 to 24 hours; unit assumed
# Protocol: as §1, §2, §3
# [3] = tested on: Escherichia coli SS; experiment: in vitro antibacterial MIC, agar dilution; details: organism code RR; 35-37° C., 20 to 24 hours; unit assumed
# Protocol: as §1, §2, §3
# [4] = tested on: Haemophilis Influenzae DILL AMP R; experiment: in vitro antibacterial MIC, agar dilution; details: organism code WW; 35-37° C., 20 to 24 hours; unit assumed
# Protocol: as §1, §2, §3
# [5] = tested on: Mycobacterium smegmatis ATCC 114; experiment: in vitro antibacterial MIC, agar dilution; details: organism code UU; 35-37° C., 20 to 24 hours; unit assumed
# Protocol: as §1, §2, §3
# [6] = tested on: Nocardia Asteroides ATCC9970; experiment: in vitro antibacterial MIC, agar dilution; details: organism code VV; 35-37° C., 20 to 24 hours; unit assumed
# Protocol: as §1, §2, §3
# [7] = tested on: Staphylococcus aureus A5177; experiment: in vitro antibacterial MIC, agar dilution; details: organism code BB; 35-37° C., 20 to 24 hours; unit assumed
# Protocol: as §1, §2, §3
# [8] = tested on: Staphylococcus aureus CMX 553; experiment: in vitro antibacterial MIC, agar dilution; details: organism code FF; 35-37° C., 20 to 24 hours; unit assumed
# Protocol: as §1, §2, §3
# [9] = tested on: Staphylococcus aureus CMX 642A; experiment: in vitro antibacterial MIC, agar dilution; details: organism code DD; 35-37° C., 20 to 24 hours; unit assumed
# Protocol: as §1, §2, §3
# [10] = tested on: Staphylococcus aureus NCTC10649M; experiment: in vitro antibacterial MIC, agar dilution; details: organism code EE; 35-37° C., 20 to 24 hours; unit assumed
# Protocol: as §1, §2, §3
# [11] = tested on: Staphylococcus epidermidis 3519; experiment: in vitro antibacterial MIC, agar dilution; details: organism code HH; 35-37° C., 20 to 24 hours; unit assumed
# Protocol: as §1, §2, §3
# [12] = tested on: Streptococcus Pheumoniae 5649; experiment: in vitro antibacterial MIC, agar dilution; details: organism code ZZA; 35-37° C., 20 to 24 hours; unit assumed
# Protocol: as §1, §2, §3
# [13] = tested on: Streptococcus Pheumoniae 5979; experiment: in vitro antibacterial MIC, agar dilution; details: organism code ZZ; 35-37° C., 20 to 24 hours; unit assumed
# Protocol: as §1, §2, §3
# [14] = tested on: Streptococcus pyogenes 930; experiment: in vitro antibacterial MIC, agar dilution; details: organism code MM; 35-37° C., 20 to 24 hours; unit assumed
# Protocol: as §1, §2, §3
# [15] = tested on: Micrococcus luteus ATCC 4698; experiment: in vitro antibacterial MIC, agar dilution; details: organism code PP; 35-37° C., 20 to 24 hours; unit assumed
# Protocol: as §1, §2, §3
# [16] = tested on: Micrococcus luteus ATCC 9341; experiment: in vitro antibacterial MIC, agar dilution; details: organism code OO; 35-37° C., 20 to 24 hours; unit assumed
# Protocol: as §1, §2, §3
# [17] = tested on: Streptococcus agalactiae CMX 508; experiment: in vitro antibacterial MIC, agar dilution; details: organism code KK; 35-37° C., 20 to 24 hours; unit assumed
# Protocol: as §1, §2, §3
# [18] = tested on: Streptococcus bovis A-5169; experiment: in vitro antibacterial MIC, agar dilution; details: organism code JJ; 35-37° C., 20 to 24 hours; unit assumed
# Protocol: as §1, §2, §3
# [19] = tested on: Streptococcus pyogenes EES61; experiment: in vitro antibacterial MIC, agar dilution; details: organism code LL; 35-37° C., 20 to 24 hours; unit assumed
# Protocol: as §1, §2, §3
# [20] = tested on: Streptococcus pyogenes PIU 2548; experiment: in vitro antibacterial MIC, agar dilution; details: organism code NN; 35-37° C., 20 to 24 hours; unit assumed
# Protocol: as §1, §2, §3
compound,measurement,setting,value
CC[C@H]1OC(=O)[C@H](C)C(=O)[C@H](C)[C@@H](O[C@@H]2O[C@H](C)C[C@H](N(C)C)[C@H]2O)[C@@]2(C)C[C@@H](C)C(=O)[C@H](C)[C@H]3N(CCOCc4ccccc4C=CCO2)C(=O)O[C@]13C [Example 12],MIC,[1],0.78 µg/mL
same,MIC,[2],0.1 µg/mL
same,MIC,[3],1.56 µg/mL
same,MIC,[4],16 µg/mL
same,MIC,[5],0.78 µg/mL
same,MIC,[6],0.78 µg/mL
same,MIC,[7],0.78 µg/mL
same,MIC,[8],0.78 µg/mL
same,MIC,[9],0.78 µg/mL
same,MIC,[10],0.78 µg/mL
same,MIC,[11],0.78 µg/mL
same,MIC,[12],1 µg/mL
same,MIC,[13],128 µg/mL
same,MIC,[14],50 µg/mL
CC[C@H]1OC(=O)[C@H](C)[C@@H](O[C@H]2C[C@@](C)(OC)[C@@H](OC(C)=O)[C@H](C)O2)[C@H](C)[C@@H](O[C@@H]2O[C@H](C)C[C@H](N(C)C)[C@H]2O)[C@@]2(C)C[C@@H](C)C(=O)[C@H](C)[C@H]3N(CCNCc4cccc(c4)C=CCO2)C(=O)O[C@]13C [Example 10],MIC,[1],6.2 µg/mL
same,MIC,[2],0.78 µg/mL
same,MIC,[3],6.2 µg/mL
same,MIC,[15],1.56 µg/mL
same,MIC,[16],0.39 µg/mL
same,MIC,[5],0.39 µg/mL
same,MIC,[6],1.56 µg/mL
same,MIC,[7],25 µg/mL
same,MIC,[8],6.2 µg/mL
same,MIC,[9],6.2 µg/mL
same,MIC,[10],6.2 µg/mL
same,MIC,[11],6.2 µg/mL
same,MIC,[12],8 µg/mL
same,MIC,[17],0.39 µg/mL
same,MIC,[18],0.39 µg/mL
same,MIC,[14],25 µg/mL
same,MIC,[19],0.78 µg/mL
same,MIC,[20],6.2 µg/mL
CC[C@H]1OC(=O)[C@H](C)[C@@H](O[C@H]2C[C@@](C)(OC)[C@@H](O)[C@H](C)O2)[C@H](C)[C@@H](O[C@@H]2O[C@H](C)C[C@H](N(C)C)[C@H]2O)[C@@]2(C)C[C@@H](C)C(=O)[C@H](C)[C@H]3N(CCNC(=O)c4ccccc4C=CCO2)C(=O)O[C@]13C [Example 4],MIC,[1],1.56 µg/mL
same,MIC,[2],0.39 µg/mL
same,MIC,[3],6.2 µg/mL
same,MIC,[4],16 µg/mL
same,MIC,[15],1.56 µg/mL
same,MIC,[6],0.2 µg/mL
same,MIC,[8],1.56 µg/mL
same,MIC,[9],1.56 µg/mL
same,MIC,[11],1.56 µg/mL
same,MIC,[12],16 µg/mL
same,MIC,[13],> 128 µg/mL
same,MIC,[19],0.39 µg/mL
same,MIC,[20],12.5 µg/mL
CC[C@H]1OC(=O)[C@H](C)[C@@H](O[C@H]2C[C@@](C)(OC)[C@@H](O)[C@H](C)O2)[C@H](C)[C@@H](O[C@@H]2O[C@H](C)C[C@H](N(C)C)[C@H]2O)[C@@]2(C)C[C@@H](C)C(=O)[C@H](C)[C@H]3N(CCC=CCO2)C(=O)O[C@]13C [Example 17],MIC,[1],0.1 µg/mL
same,MIC,[2],0.05 µg/mL
same,MIC,[4],8 µg/mL
same,MIC,[15],0.1 µg/mL
same,MIC,[16],0.02 µg/mL
same,MIC,[5],0.2 µg/mL
same,MIC,[6],0.02 µg/mL
same,MIC,[8],0.1 µg/mL
same,MIC,[9],0.2 µg/mL
same,MIC,[10],0.2 µg/mL
same,MIC,[11],0.2 µg/mL
same,MIC,[12],8 µg/mL
same,MIC,[13],> 128 µg/mL
same,MIC,[19],0.02 µg/mL
CC[C@H]1OC(=O)[C@H](C)[C@@H](O[C@H]2C[C@@](C)(OC)[C@@H](O)[C@H](C)O2)[C@H](C)[C@@H](O[C@@H]2O[C@H](C)C[C@H](N(C)C)[C@H]2O)[C@@]2(C)C[C@@H](C)C(=O)[C@H](C)[C@H]3N(CCNC(=O)Cc4ccccc4C=CCO2)C(=O)O[C@]13C [Example 6],MIC,[1],0.78 µg/mL
same,MIC,[2],0.39 µg/mL
same,MIC,[3],3.1 µg/mL
same,MIC,[4],8 µg/mL
same,MIC,[15],0.78 µg/mL
same,MIC,[16],0.1 µg/mL
same,MIC,[5],0.39 µg/mL
same,MIC,[6],0.39 µg/mL
same,MIC,[7],12.5 µg/mL
same,MIC,[8],0.78 µg/mL
same,MIC,[9],1.56 µg/mL
same,MIC,[10],1.56 µg/mL
same,MIC,[11],0.78 µg/mL
same,MIC,[12],16 µg/mL
same,MIC,[13],> 128 µg/mL
same,MIC,[17],0.1 µg/mL
same,MIC,[18],0.1 µg/mL
same,MIC,[19],0.2 µg/mL
same,MIC,[20],12.5 µg/mL
